According to US10626144B2, “Peptide derivatives and uses thereof” (Nosopharm, priority 2014, dated 2020):
Numbered stars: 1 amine (or outer) side, 2 acyl side, 3 side chain; on linkers, the order of the positions; unused ones are H or OH. Square brackets hold non-standard residues; d marks the D form. Peptide text beside a SMILES is read from it. * marks the point of attachment. Phe(4-Cl) = N[C@@H](Cc1ccc(Cl)cc1)C(=O)O; Phe(3-F) = N[C@@H](Cc1cccc(F)c1)C(=O)O; Dab(3S-OH) = NC[C@H](O)[C@H](N)C(=O)O; Hyp = O=C(O)[C@@H]1C[C@@H](O)CN1; 3Pal = N[C@@H](Cc1cccnc1)C(=O)O; 4Pal = N[C@@H](Cc1ccncc1)C(=O)O; ΔZArg = N=C(N)NCC/C=C(\N)C(=O)O; Lys(Me) = CNCCCC[C@H](N)C(=O)O; NMeK = CN[C@@H](CCCCN)C(=O)O; X2 = CC=C(N[*:1])C(=O)[*:2]; hLys = NCCCCC[C@H](N)C(=O)O; dOrn = NCCC[C@@H](N)C(=O)O; Pip = O=C(O)[C@@H]1CCCCN1; NMeA = CN[C@@H](C)C(=O)O; Aze = O=C(O)[C@@H]1CCN1; NH(CH2)4NH2 = NCCCCN*

Tests used:
Assay in all cases: MIC, broth microdilution (CLSI), reference strain
Details in all cases: CAMHB
[1] = system: Escherichia coli ATCC 25922
[2] = system: Acinetobacter baumannii ATCC 19606
[3] = system: Pseudomonas aeruginosa ATCC 27853
[4] = system: Staphylococcus aureus ATCC 13709

Compound	Ec: MIC Escherichia coli ATCC 25922 [1]	Ab: MIC Acinetobacter baumannii ATCC 19606 [2]	Pa: MIC Pseudomonas aeruginosa ATCC 27853 [3]	Sa: MIC Staphylococcus aureus ATCC 13709 [4]
CC=C(NC(=O)[C@H](CCCCN)NC(=O)[C@H](Cc1cnc[nH]1)NC(=O)[C@@H]1CCCN1C(=O)[C@@H](CCCN)NC(=O)CNC(=O)[C@H](C)NC(=O)[C@@H](NC(=O)[C@@H](N)CCCCN)[C@@H](O)CN)C(=O)N[C@@H](CCCCN)C(=O)NCCCCN [24.8] (H-K[Dab(3S-OH)]AG[dOrn]PHK[X2]K-{NH(CH2)4NH2})	+ (≤32 μg/mL)	− (>32 μg/mL)	− (>32 μg/mL)	++ (≤8 μg/mL)
CC(=O)NCCCC[C@H](N)C(=O)N[C@H](C(=O)N[C@@H](C)C(=O)NCC(=O)N[C@H](CCCN)C(=O)N1CCC[C@H]1C(=O)N[C@@H](Cc1cnc[nH]1)C(=O)N[C@@H](CCCCN)C(=O)N/C(=C\CCNC(=N)N)C(=O)N[C@@H](CCCCN)C(=O)NCCCCN)[C@@H](O)CN [24.9] (H-K(Ac)[Dab(3S-OH)]AG[dOrn]PHK[ΔZArg]K-{NH(CH2)4NH2})	− (>32 μg/mL)	− (>32 μg/mL)	− (>32 μg/mL)	+ (≤32 μg/mL)
C[C@H](NC(=O)[C@@H](NC(=O)[C@@H](N)CCCCN)[C@@H](O)CN)C(=O)NCC(=O)N[C@H](CCCN)C(=O)N1CCC[C@H]1C(=O)N[C@@H](Cc1cccnc1)C(=O)N[C@@H](CCCCN)C(=O)N/C(=C\CCNC(=N)N)C(=O)N[C@@H](CCCCN)C(=O)NCCCCN [24.18] (H-K[Dab(3S-OH)]AG[dOrn]P[3Pal]K[ΔZArg]K-{NH(CH2)4NH2})	++ (≤8 μg/mL)	− (>32 μg/mL)	− (>32 μg/mL)	++ (≤8 μg/mL)
C[C@H](NC(=O)[C@@H](NC(=O)[C@@H](N)CCCCN)[C@@H](O)CN)C(=O)NCC(=O)N[C@H](CCCN)C(=O)N1CCC[C@H]1C(=O)N[C@@H](Cc1ccncc1)C(=O)N[C@@H](CCCCN)C(=O)N/C(=C\CCNC(=N)N)C(=O)N[C@@H](CCCCN)C(=O)NCCCCN [24.19] (H-K[Dab(3S-OH)]AG[dOrn]P[4Pal]K[ΔZArg]K-{NH(CH2)4NH2})	++ (≤8 μg/mL)	− (>32 μg/mL)	+ (≤32 μg/mL)	++ (≤8 μg/mL)
C[C@H](NC(=O)[C@@H](NC(=O)[C@@H](N)CCCCN)[C@@H](O)CN)C(=O)NCC(=O)N[C@H](CCCN)C(=O)N1CCC[C@H]1C(=O)N[C@@H](CCC(N)=O)C(=O)N[C@@H](CCCCN)C(=O)N/C(=C\CCNC(=N)N)C(=O)N[C@@H](CCCCN)C(=O)NCCCCN [24.21] (H-K[Dab(3S-OH)]AG[dOrn]PQK[ΔZArg]K-{NH(CH2)4NH2})	++ (≤8 μg/mL)	− (>32 μg/mL)	− (>32 μg/mL)	++ (≤8 μg/mL)
CNCCCC[C@H](N)C(=O)N[C@H](C(=O)N[C@@H](C)C(=O)NCC(=O)N[C@H](CCCN)C(=O)N1CCC[C@H]1C(=O)N[C@@H](Cc1cnc[nH]1)C(=O)N[C@@H](CCCCN)C(=O)N/C(=C\CCNC(=N)N)C(=O)N[C@@H](CCCCN)C(=O)NCCCCN)[C@@H](O)CN [24.43] (H-[Lys(Me)][Dab(3S-OH)]AG[dOrn]PHK[ΔZArg]K-{NH(CH2)4NH2})	++ (≤8 μg/mL)	− (>32 μg/mL)	+ (≤32 μg/mL)	++ (≤8 μg/mL)
CN[C@@H](CCCCN)C(=O)N[C@H](C(=O)N[C@@H](C)C(=O)NCC(=O)N[C@H](CCCN)C(=O)N1CCC[C@H]1C(=O)N[C@@H](Cc1cnc[nH]1)C(=O)N[C@@H](CCCCN)C(=O)N/C(=C\CCNC(=N)N)C(=O)N[C@@H](CCCCN)C(=O)NCCCCN)[C@@H](O)CN [24.61] (H-[NMeK][Dab(3S-OH)]AG[dOrn]PHK[ΔZArg]K-{NH(CH2)4NH2})	++ (≤8 μg/mL)	+ (≤32 μg/mL)	+ (≤32 μg/mL)	++ (≤8 μg/mL)
C[C@H](NC(=O)[C@@H](NC(=O)[C@@H](N)CCCCN)[C@@H](O)CN)C(=O)NCC(=O)N[C@H](CCCN)C(=O)N1CCC[C@H]1C(=O)N[C@@H](Cc1cnc[nH]1)C(=O)N[C@@H](CCCCN)C(=O)N/C(=C\CCNC(=N)N)C(=O)N[C@@H](CCCCN)C(=O)O [24.62] (H-K[Dab(3S-OH)]AG[dOrn]PHK[ΔZArg]K-OH)	+ (≤32 μg/mL)	− (>32 μg/mL)	− (>32 μg/mL)	++ (≤8 μg/mL)
CN[C@@H](CCCCN)C(=O)N[C@H](C(=O)N[C@@H](C)C(=O)NCC(=O)N[C@H](CCCN)C(=O)N1CCC[C@H]1C(=O)N[C@@H](Cc1cnc[nH]1)C(=O)N[C@@H](CCCCN)C(=O)N/C(=C\CCNC(=N)N)C(N)=O)[C@@H](O)CN [24.63] (H-[NMeK][Dab(3S-OH)]AG[dOrn]PHK[ΔZArg]-NH2)	++ (≤8 μg/mL)	− (>32 μg/mL)	− (>32 μg/mL)	++ (≤8 μg/mL)
CNCCCC[C@H](N)C(=O)N[C@H](C(=O)N[C@@H](C)C(=O)NCC(=O)N[C@H](CCCN)C(=O)N1CCC[C@H]1C(=O)N[C@@H](Cc1cnc[nH]1)C(=O)N[C@@H](CCCCN)C(=O)N/C(=C\CCNC(=N)N)C(N)=O)[C@@H](O)CN [24.64] (H-[Lys(Me)][Dab(3S-OH)]AG[dOrn]PHK[ΔZArg]-NH2)	++ (≤8 μg/mL)	− (>32 μg/mL)	− (>32 μg/mL)	++ (≤8 μg/mL)
C[C@H](NC(=O)[C@@H](NC(=O)[C@@H](N)CCCCN)[C@@H](O)CN)C(=O)NCC(=O)N[C@H](CCCN)C(=O)N(C)[C@@H](C)C(=O)N[C@@H](Cc1cnc[nH]1)C(=O)N[C@@H](CCCCN)C(=O)N/C(=C\CCNC(=N)N)C(N)=O [24.65] (H-K[Dab(3S-OH)]AG[dOrn][NMeA]HK[ΔZArg]-NH2)	+ (≤32 μg/mL)	− (>32 μg/mL)	− (>32 μg/mL)	++ (≤8 μg/mL)
C[C@H](NC(=O)[C@@H](NC(=O)[C@@H](N)CCCCN)[C@@H](O)CN)C(=O)NCC(=O)N[C@H](CCCN)C(=O)N1CCC[C@H]1C(=O)N[C@@H](Cc1cnc[nH]1)C(=O)N[C@@H](CCCCN)C(=O)N[C@H](CCCNC(=N)N)C(N)=O [24.68] (H-K[Dab(3S-OH)]AG[dOrn]PHK[dR]-NH2)	+ (≤32 μg/mL)	− (>32 μg/mL)	− (>32 μg/mL)	++ (≤8 μg/mL)
C[C@H](NC(=O)[C@@H](NC(=O)[C@@H](N)CCCCCN)[C@@H](O)CN)C(=O)NCC(=O)N[C@H](CCCN)C(=O)N1CCC[C@H]1C(=O)N[C@@H](Cc1cnc[nH]1)C(=O)N[C@@H](CCCCN)C(=O)N/C(=C\CCNC(=N)N)C(N)=O [24.69] (H-[hLys][Dab(3S-OH)]AG[dOrn]PHK[ΔZArg]-NH2)	+ (≤32 μg/mL)	− (>32 μg/mL)	− (>32 μg/mL)	++ (≤8 μg/mL)
C[C@H](NC(=O)[C@@H](NC(=O)[C@@H](N)CCCCN)[C@@H](O)CN)C(=O)NCC(=O)N[C@H](CCCN)C(=O)N1C[C@H](O)C[C@H]1C(=O)N[C@@H](Cc1cnc[nH]1)C(=O)N[C@@H](CCCCN)C(=O)N/C(=C\CCNC(=N)N)C(=O)O [24.70] (H-K[Dab(3S-OH)]AG[dOrn][Hyp]HK[ΔZArg]-OH)	− (>32 μg/mL)	− (>32 μg/mL)	− (>32 μg/mL)	+ (≤32 μg/mL)
C[C@H](NC(=O)[C@@H](NC(=O)[C@@H](N)CCCCN)[C@@H](O)CN)C(=O)NCC(=O)N[C@H](CCCN)C(=O)N1CC[C@H]1C(=O)N[C@@H](Cc1cccc(F)c1)C(=O)N[C@@H](CCCCN)C(=O)N/C(=C\CCNC(=N)N)C(=O)O [24.71] (H-K[Dab(3S-OH)]AG[dOrn][Aze][Phe(3-F)]K[ΔZArg]-OH)	+ (≤32 μg/mL)	− (>32 μg/mL)	− (>32 μg/mL)	+ (≤32 μg/mL)
C[C@H](NC(=O)[C@@H](NC(=O)[C@@H](N)CCCCN)[C@@H](O)CN)C(=O)NCC(=O)N[C@H](CCCN)C(=O)N1CC[C@H]1C(=O)N[C@@H](Cc1ccc(Cl)cc1)C(=O)N[C@@H](CCCCN)C(=O)N/C(=C\CCNC(=N)N)C(=O)O [24.72] (H-K[Dab(3S-OH)]AG[dOrn][Aze][Phe(4-Cl)]K[ΔZArg]-OH)	+ (≤32 μg/mL)	− (>32 μg/mL)	− (>32 μg/mL)	++ (≤8 μg/mL)
C[C@H](NC(=O)[C@@H](NC(=O)[C@@H](N)CCCCN)[C@@H](O)CN)C(=O)NCC(=O)N[C@H](CCCN)C(=O)N1CC[C@H]1C(=O)N[C@@H](Cc1cnc[nH]1)C(=O)N[C@@H](CCCCN)C(=O)N/C(=C\CCNC(=N)N)C(=O)O [24.73] (H-K[Dab(3S-OH)]AG[dOrn][Aze]HK[ΔZArg]-OH)	+ (≤32 μg/mL)	− (>32 μg/mL)	− (>32 μg/mL)	+ (≤32 μg/mL)
C[C@H](NC(=O)[C@@H](NC(=O)[C@@H](N)CCCCN)[C@@H](O)CN)C(=O)NCC(=O)N[C@H](CCCN)C(=O)N1CCCC[C@H]1C(=O)N[C@@H](Cc1cnc[nH]1)C(=O)N[C@@H](CCCCN)C(=O)N/C(=C\CCNC(=N)N)C(=O)O [24.74] (H-K[Dab(3S-OH)]AG[dOrn][Pip]HK[ΔZArg]-OH)	+ (≤32 μg/mL)	− (>32 μg/mL)	− (>32 μg/mL)	+ (≤32 μg/mL)
